Measurements reported in patent US7138543B2, “Thiolalkyl benzoic acid derivatives” (Guilford Pharmaceuticals Inc., priority 2001, dated 2006).

Legend:
cortical cell cultures = test: In vitro assay on ischemia (potassium cyanide and 2-deoxyglucose insult); assay type: cell-based; settings: concentration required to cause a 50% reduction in glutamate toxicity following an ischemic insult; unit inferred
Procedure: In vitro Assay on Ischemia
To examine the in vitro effect of the compounds of the invention on ischemia, cortical cell cultures were treated with various compounds of the invention during an ischemic insult utilizing potassium cyanide and 2-deoxyglucose, and for one hour thereafter. For a description of the experimental method used, see Vornov et al., J. Neurochem., Vol. 65, No. 4, pp. 1681–1691 (1995).

NAALADase = biological target: T1, NAALADase (Homo sapiens, UniProt Q04609); test: In vitro inhibition of NAALADase activity; assay type: biochemical; settings: unit inferred
T1 construct: from tissue; host or cells: unspecified tissue
Procedure: In vitro Inhibition of NAALADase Activity
Protocol for Assaying in vitro Inhibition of NAALADase Activity
The following were combined in assay tubes: 100 μL of 10 mM CoCl2, 250 μL of 200 mM Tris chloride, 100 μL tissue, 100 μL of 10 mM NAALADase inhibitor in Bakers H2O, and Bakers H2O to make a total volume of 950 μL. Each assay tube was then incubated for 10 minutes in a 37° C. water bath. […] The assay was stopped by adding 1.0 ml of 0.1 M sodium phosphate.
Glutamate released by the action of the NAALADase enzyme was separated from the assay solution using an anion exchange resin. The resin was equilibrated to 25° C., 2.0 ml of the resin was added to a Pasteur pipette pre-loaded with a single glass bead, and each column was washed twice with distilled H2O. A column was placed over a scintillation vial and 200 μL of an assay sample was loaded onto the column. After draining, glutamate was eluted using two 1.0 ml washes of 1 M formic acid. After addition of 10 ml of scintillation cocktail, each sample was counted for 2 minutes on a scintillation counter.

[1] = system: chronic constrictive injury-induced rats; test: Neuropathic pain in CCI model (sciatic nerve ligation); assay type: in vivo
Procedure: In vivo Assay of NAALADase Inhibitors on Neuropathic Pain in CCI Model
Sciatic nerve ligation, consisting of 4 ligatures tied loosely around the sciatic nerve at 1 mm intervals proximal to the nerve trifurcation, was performed on rats. […] The rats were habituated to a Hargreaves apparatus. An infrared heat source was directed onto the dorsal surface of each rat's hindpaws and the time taken for the rat to withdraw its paws was noted. The difference in scores between the latency of the response for the paw on the operated side versus the paw on the unoperated control side was determined.

STZ diabetic rats [2] = test: Reversal of diabetic neuropathy in STZ model, delayed dosing: nerve conduction velocity; assay type: in vivo; settings: daily p.o., within 8 weeks of dosing, persisted through 12 weeks, FIG. 23
Procedure: (§1) In vivo Assay of NAALADase Inhibitors—Reversal of Diabetic Neuropathy in STZ Model
(§2) General Method for STZ Model—Delayed Dosing
(§3) Rats (200–225 grams) were injected with STZ (70 mg/kg) into the tail vein. Diabetes (>350 mg/dl) was confirmed in all rats, 4 weeks after STZ administration. Rats were left untreated until 35–49 days after STZ. Compound D (1, 3, or 10 mg/kg), Compound E (10 mg/kg), or vehicle were dosed daily p.o. following confirmation of hyperalgesia and/or nerve conduction velocity deficits. In separate experiments, onset of treatment was delayed until 60 to 90 days after STZ administration. Nerve conduction velocity or withdrawal response to thermal stimulation of hind paws was measured at intervals, usually bi-weekly for thermal response and monthly for nerve conduction velocity.
Nerve Conduction Velocity Measurements
Sensory and motor nerve conduction velocities were evaluated using the method of De Koning and Gispen (Peptides 8: 415–422, 1987). Electrophysiological evaluation was carried out within one hour of dosing. Animals were anesthetized with isoflurane and stimulating needle electrodes were inserted close to the sciatic nerve at the sciatic notch and the tibial nerve near the ankle. Recording electrodes were placed over the foot muscles. Stimuli were applied and responses recorded. Motor and sensory nerve conduction velocities were calculated by measuring the distance between the sciatic notch and ankle sites, and the latency between the M-wave and the H-reflex.

STZ diabetic rats [3] = test: Reversal of diabetic neuropathy in STZ model, delayed dosing: thermal hyperalgesia; assay type: in vivo; settings: daily p.o., treatment from 5 weeks post STZ, within two weeks of treatment, FIG. 22
Procedure: as §1, §2, §3
Animals were acclimated to the apparatus for at least 5 min. An infra-red source was placed under below the plantar surface of the rat hind-paw. The intensity of the source was adjusted so that latency for normal rats was about 10 secs. Animals were tested for thermal response latency according to the method of Hargreaves et al (Pain 77–88, 1988). Each animal was tested 8 times (4 each hind limb) and the latency of response recorded automatically to nearest 0.1 sec. An average of the last 4 measurements for each paw was calculated (8 total measurements) and noted for each rat.

T1 sequence (Q04609 whole entry): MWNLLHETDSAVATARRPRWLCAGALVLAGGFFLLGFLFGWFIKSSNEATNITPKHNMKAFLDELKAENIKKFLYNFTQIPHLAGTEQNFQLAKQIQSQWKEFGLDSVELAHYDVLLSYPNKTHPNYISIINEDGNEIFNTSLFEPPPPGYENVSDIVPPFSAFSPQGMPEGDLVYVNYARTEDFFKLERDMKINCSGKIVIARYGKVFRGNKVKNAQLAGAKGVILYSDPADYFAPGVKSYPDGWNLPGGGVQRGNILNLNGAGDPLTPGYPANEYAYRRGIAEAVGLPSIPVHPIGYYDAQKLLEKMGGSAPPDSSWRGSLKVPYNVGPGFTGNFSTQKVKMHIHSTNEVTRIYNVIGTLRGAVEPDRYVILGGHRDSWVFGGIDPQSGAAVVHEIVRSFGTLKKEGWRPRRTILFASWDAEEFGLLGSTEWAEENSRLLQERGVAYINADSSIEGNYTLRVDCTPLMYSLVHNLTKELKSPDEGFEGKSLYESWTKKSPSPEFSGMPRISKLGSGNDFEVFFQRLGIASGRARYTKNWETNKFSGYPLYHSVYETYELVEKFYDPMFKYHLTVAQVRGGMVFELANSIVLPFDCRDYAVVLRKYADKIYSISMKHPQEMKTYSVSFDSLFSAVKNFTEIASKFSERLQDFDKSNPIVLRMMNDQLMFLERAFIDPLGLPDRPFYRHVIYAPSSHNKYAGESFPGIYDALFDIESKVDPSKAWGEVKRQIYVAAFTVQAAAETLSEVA

Row | IC50 (NAALADase) [nM] | SMILES | EC50 (cortical cell cultures) [nM] | other results
1 | 89.8 | O=C(O)c1c(CCS)cccc1OCc1ccccc1 [Compound 7, 2-(2-mercaptoethyl)-6-(phenylmethoxy)-benzoic acid] | 96 | 
2 | 24.3 | O=C(O)c1cccc(-c2ccc(CS)cc2C(=O)O)c1 [Compound 26, 4-(mercaptomethyl)-[1,1′-biphenyl]-2,3′-dicarboxylic acid] | 151 | 
3 | 100000 | O=C(O)c1ccccc1CS [Compound 31, 2-(mercaptomethyl)-benzoic acid] |  | 
4 | 25 | O=C(O)c1c(CCS)cccc1OCc1ccc(Cl)cc1 [Compound 32, 2-[(4-chlorophenyl)methoxy]-6-(2-mercaptoethyl)-benzoic acid] |  | 
5 | 1.2 | O=C(O)c1ccc(Br)c(COc2cccc(CCS)c2C(=O)O)c1 [Compound 35, 2-[(2-bromo-5-carboxyphenyl)methoxy]-6-(2-mercaptoethyl)-benzoic acid] |  | 
6 | 100 | COc1ccc(COc2cccc(CCS)c2C(=O)O)cc1 [Compound 36, 2-(2-mercaptoethyl)-6-[(4-methoxyphenyl)methoxy]-benzoic acid] |  | 
7 | 40 | COc1ccc(C(=O)O)c(COc2cccc(CCS)c2C(=O)O)c1 [Compound 39, 2-[(2-carboxy-5-methoxyphenyl)methoxy]-6-(2-mercaptoethyl)-benzoicacid] |  | 
8 | 1 | O=C(O)c1cccc(COc2cccc(CCS)c2C(=O)O)c1 [Compound 40, 2-(3-carboxy-benzyloxy)-6-(2-mercapto-ethyl)-benzoic acid] |  | 
9 | 1250 | O=C(O)c1c(CCS)cccc1OCc1ccc(Br)cc1 [Compound 41, 2-(4-bromo-benzyloxy)-6-(2-mercapto-ethyl)-benzoic acid] |  | 
10 | 300 | CC(C)(C)c1ccc(COc2cccc(CCS)c2C(=O)O)cc1 [Compound 42, 2-(4-tert-butyl-benzyloxy)-6-(2-mercapto-ethyl)-benzoic acid] |  | 
11 | 104 | O=C(O)c1c(CCS)cccc1OCc1cccc(Br)c1 [Compound 43, 2-(3-bromo-benzyloxy)-6-(2-mercapto-ethyl)-benzoic acid] |  | 
12 | 35200 | O=C(O)c1c(CCS)cccc1OC(c1ccccc1)c1ccccc1 [Compound 45, 2-benzhydryloxy-6-(2-mercapto-ethyl)-benzoic acid] |  | 
13 | 12200 | O=C(O)c1c(CCS)cccc1OCc1cccc(Cl)c1 [Compound 46, 2-(3-chloro-benzyloxy)-6-(2-mercapto-ethyl)-benzoic acid] |  | 
14 | 43 | O=C(O)Cc1cccc(CCS)c1C(=O)O [Compound 48, 2-carboxymethyl-6-(2-mercapto-ethyl)-benzoic acid] |  | 

Further lines, the molecule ahead of its results:

Row | SMILES | IC50 (NAALADase) [nM] | EC50 (cortical cell cultures) [nM] | other results
15 | O=C(O)c1ccccc1CCS [Compound 1, 2-(2-mercaptoethyl)-benzoic acid] |  | 846 | 
16 | O=C(O)c1ccc(COc2ccc(CCS)c(C(=O)O)c2)cc1 [Compound 3, 5-[(4-carboxyphenyl)methoxy]-2-(2-mercaptoethyl)-benzoic acid] |  | 10000 | 
17 | O=C(O)c1cc(OCc2ccccc2)ccc1CCS [Compound 4, 2-(2-mercaptoethyl)-5-(phenylmethoxy)-benzoic acid,] |  | 9600 | 
18 | O=C(O)c1cccc(COc2ccc(CCS)c(C(=O)O)c2)c1 [Compound 6, 5-[(3-carboxyphenyl)methoxy]-2-(2-mercaptoethyl)-benzoic acid] |  | 84 | 
19 | O=C(O)c1ccccc1COc1cccc(CCS)c1C(=O)O [Compound 8, 2-[(2-carboxyphenyl)methoxy]-6-(2-mercaptoethyl)-benzoic acid] |  | 29 | 
20 | O=C(O)c1ccc(COc2cccc(CCS)c2C(=O)O)cc1 [Compound 9, 2-[(4-carboxyphenyl)methoxy]-6-(2-mercaptoethyl)-benzoic acid] | 28.8 | 19 | withdrawal latency difference scores between operated and unoperated paws ([1]; 10, 1 or 0.1 mg/kg for 15 days after sciatic nerve ligation, FIG. 13): normalized the difference in scores
21 | O=C(O)c1cccc(-c2cccc(CCS)c2C(=O)O)c1 [Compound 10, 3-(2-mercaptoethyl)-[1,1′-biphenyl]-2,3′-dicarboxylic acid] |  |  | withdrawal latency difference scores between operated and unoperated paws ([1]; 0.1 mg/kg for 18 days after sciatic nerve ligation, FIG. 14): normalized the difference in scores
22 | O=C(O)c1ccc(COc2cccc(CCS)c2C(=O)O)cc1Br [Compound 20, 2-[(3-bromo-4-carboxyphenyl)methoxy]-6-(2-mercaptoethyl)-benzoic acid] | 18 |  | 
23 | O=C(O)c1cc(CS)ccc1Br [Compound 25, 2-bromo-5-(mercaptomethyl)-benzoic acid] |  | 2000 | 
24 | O=C(O)c1cc(CS)ccc1OCc1ccccc1 [Compound 27, 5-(mercaptomethyl)-2-(phenylmethoxy)-benzoic acid] |  | 728 | 
25 | O=C(O)c1cccc(CCS)c1 [Compound 29, 3-(2-mercaptoethyl)-benzoic acid] |  | 2400 | 
26 | O=C(O)c1cccc(CS)c1 [Compound 30, 3-(mercaptomethyl)-benzoic acid] |  | 619 | 
27 | O=C(O)c1c(CCS)cccc1OCc1ccccc1-c1ccccc1 [Compound 33, 2-(biphenyl-2-ylmethoxy)-6-(2-mercaptoethyl)-benzoic acid] | 95 |  | 
28 | O=C(O)c1cc(Br)cc(COc2cccc(CCS)c2C(=O)O)c1 [Compound 34, 2-[(3-bromo-5-carboxyphenyl)methoxy]-6-(2-mercaptoethyl)-benzoic acid] | 0.9 |  | 
29 | Cc1ccc(COc2cccc(CCS)c2C(=O)O)cc1 [Compound 37, 2-(2-mercaptoethyl)-6-[(4-methylphenyl)methoxy]-benzoic acid] | 70 |  | 
30 | O=C(O)c1cc(COc2cccc(CCS)c2C(=O)O)ccc1Br [Compound 38, 2-[(4-bromo-3-carboxyphenyl)methoxy]-6-(2-mercaptoethyl)-benzoic acid] | 0.8 |  | 
31 | COc1cccc(CCS)c1C(=O)O [Compound 44, 2-(2-mercapto-ethyl)-6-methoxy-benzoicacid] | 954 |  | 
32 | O=C(O)c1c(CCS)cccc1-c1ccccc1 [Compound 47, 3-(2-mercapto-ethyl)-biphenyl-2-carboxylic acid] | 75400 |  | 
33 | O=C(O)c1cccc(CC(CCCS)C(=O)O)c1 (stereo not drawn) [Compound E, 3-Carboxy-alpha-(3-mercaptopropyl)-benzenepropanoic acid] |  |  | motor nerve conduction velocity (STZ diabetic rats [2]): reversed the motor nerve conduction velocity towards normal; neuropathic hyperalgesia (thermal response latency) (STZ diabetic rats [3]): reversed towards normal
